Structures are written as SMILES. Values joined by “and” are separate entries in the source; they are usually repeats but may differ in a detail not shown here. Equal entries are not always repeated. Where only a bound is given, the exact number is not on record here.

The test system of this assay is 699152-130-R-J1-PDC complex spheroid viability. Briefly: Anticancer human tumor 699152-130-R-J1-PDC patient-derived pancreatic carcinoma cell line growth inhibition [POLQ]. To be noted: for viability, T/C: stronger effect = lower value. How it is done:
Multicellular complex tumor spheroid response to Polymerase (POL) inhibitors (novobiocin, ART-558, RP6685) in combination with a variety of drugs and investigational agents in selected tumor cell lines
The POL inhibitors (novobiocin, ART-558, and RP6685) were evaluated both individually and in combination with standard of care and investigational anticancer small molecules within a complex spheroid model of solid tumors. . Complex spheroids include a stromal component modeled by human endothelial cells (HUVEC) and fibroblasts modeled by human mesenchymal stem cells (MSCs). The concentration ranges selected for each drug and investigational agent were based upon clinically achievable concentrations if the clinical Cmax of the agent was known.
Compounds. The drugs and investigational agents: novobiocin (NSC847541), ART-558 (NSC835418), RP-6685 (NSC848927), peposertib (NSC802822), ceralasertib (NSC780249), elimusertib (NSC800525), camonsertib (NSC841442), AZD-1390 (NSC803789), olaparib (NSC753686), talazoparib (NSC767125), rucaparib (NSC756644), sotorasib (NSC818433), MRTX-1133 (NSC836407), SN-38 (NSC673596), topotecan (NSC609699), epotoside (NSC141540), doxorubicin (NSC123127), gemcitabine (NSC613327), 5-fluorouracil (NSC19893), paclitaxel (NSC125973), vemurafenib (NSC761431), MSA-2 (NSC828583), SN-011 (NSC837082), adavosertib (NSC754352), prexasertib (NSC758257), carboplatin (NSC241240) and oxaliplatin (NSC266046), were obtained from the National Cancer Institute (NCI) Developmental Therapeutics Program Chemical Repository (21). The FDA-approved anticancer drug set is available from the Developmental Therapeutics Program at https://dtp.cancer.gov/organization/dscb/obtaining/. […] The stock solutions were prepared in dimethyl sulfoxide (DMSO, Sigma-Aldrich, St. Louis, MO, cat. D2650), except for the platinum compounds which were prepared in saline (Quality Biological, Gaithersburg, MD, cat. 114-055-101), at 800-fold the tested concentration and stored at -70 degrees C prior to their use. All drugs and investigational agents were tested over a range starting from a high concentration at or near the clinical Cmax and decreasing in half-log increments. If the clinical Cmax for an agent had not been determined, the highest concentration tested was 10 microM, except for SN-38, which was tested at a high concentration of 1 microM.
Cell Culture. All cells were maintained in an incubator at 37 degrees C and 5% CO2 with 95% humidity. The PDC lines were cultured according to standard operating procedures established by the NCI PDMR (https://pdmr.cancer.gov). Table 3 of the manuscript, lists the cell lines along with the number of the three cell types plated to form the mct-spheroids and media for tumor cell growth. After thawing, all PDC lines, except 997537-175-T-J1-PDC and 415267-285-R-J2-PDC, were cultured in Matrigel-coated flasks prepared with a working solution of 1X Ham's F-12 nutrient mix, without supplementation (Thermo Fisher Scientific, cat. 11765054), 100 U/mL penicillin-streptomycin (Thermo Fisher Scientific, cat. 15140122), and 2.5% Matrigel (Corning Inc., Corning, NY, cat. 354248) for the first three passages. The two PDC lines 997537-175-T-J1-PDC and 415267-285-R-J2-PDC were cultured on uncoated flasks. The 857933-349-R-J2-PDC line was cultured in 6C/Colon 1B media containing advanced DMEM/F-12 (Thermo Fisher Scientific, cat. 12634028), 10 mM HEPES (Thermo Fisher Scientific, cat. 15630080), 1X GlutaMAX supplement (Thermo Fisher Scientific, cat. 35050061), 0.1 mg/mL primocin (InvivoGen, San Diego, CA, cat. ant-pm-2), 10% defined fetal bovine serum, heat inactivated (HyClone Laboratories Inc., Logan, UT, cat. SH30070.03HI), 50% L-WRN conditioned media (ATCC, cat. CRL-3276), 1.25 mM N-Acetyl-L-cysteine (Sigma-Aldrich, cat. A9165), 10 mM nicotinamide (Sigma-Aldrich, cat. N0636), 1X B-27 supplement (Thermo Fisher Scientific, cat. 17504044), 1X N-2 supplement (Thermo Fisher Scientific, cat. […]
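Further: spheroids exposed to agents for 7 days before viability reading.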
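Wherever viability, T/C is given: percent of DMSO vehicle control viability so 100% = vehicle and 0% = no viable signal.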

By viability, T/C is commonly meant the ratio of treated to control. By IC50 is commonly meant the midpoint of a concentration-inhibition curve. Take `CC(C)n1c(=O)n(C)c2cnc3cc(F)c(-c4ccc(OCCCN5CCCCC5)nc4)cc3c21`: the viability, T/C is 93.3% and 103% and 119% (compound 0.0316 µM); 88.1% and 91.7% and 92.8% (compound 0.1 µM); 98.6% and 105% and 99.7% (compound 0.316 µM); 110% and 102% and 97.5% (compound 1 µM); 96.3% and 110% and 87.4% (compound 3.16 µM); 87.1% and 91.8% and 85.5% (compound 10 µM). Where the note is “curve of compound”, the half-inhibitory concentration (IC50) is over 10 µM.

Turning to `COc1cc(C2c3cc4c(cc3C(OC3OC5COC(C)OC5C(O)C3O)C3COC(=O)C23)OCO4)cc(OC)c1O` (stereo unspecified), the viability, T/C (compound 0.0316 µM) is 105% and 94.4% and 87.1%; the viability, T/C (compound 0.1 µM) is 90.3% and 87% and 86.1%; the viability, T/C (compound 0.316 µM) is 76.8% and 81.6% and 71.8%; the viability, T/C (compound 1 µM) was 73.7% and 79.2% and 62.8%; the viability, T/C (compound 3.16 µM) is 59.8% and 63.5% and 52.7%; the viability, T/C (compound 10 µM) is 53.1% and 44% and 40.2%. Also, the half-inhibitory concentration (IC50) (curve of compound) is > 10 µM and 7.19 µM and 3.71 µM.

On to `CC(=O)O[C@H]1C(=O)[C@@]2(C)[C@H]([C@H](OC(=O)c3ccccc3)[C@]3(O)C[C@H](OC(=O)[C@H](O)[C@@H](NC(=O)c4ccccc4)c4ccccc4)C(C)=C1C3(C)C)[C@]1(OC(C)=O)CO[C@@H]1C[C@@H]2O` + COC1C(OC(N)=O)C(O)C(Oc2ccc3c(O)c(NC(=O)c4ccc(O)c(CC=C(C)C)c4)c(=O)oc3c2C)OC1(C)C, for which the concentration for half-maximal inhibition (IC50) is, setting by setting: (curve of first compound, second compound 0.0316 µM) over 3 µM; (curve of first compound, second compound 0.1 µM) over 3 µM; (curve of first compound, second compound 0.316 µM) over 3 µM; (curve of first compound, second compound 1 µM) over 3 µM; (curve of first compound, second compound 3.16 µM) over 3 µM; (curve of first compound, second compound 10 µM) over 3 µM. Also, the viability, T/C was 81.5% (second compound 0.0316 µM, first compound 0.00949 µM); 57% (second compound 0.0316 µM, first compound 0.03 µM); 57.1% (second compound 0.0316 µM, first compound 0.0949 µM); 60.7% (second compound 0.0316 µM, first compound 0.3 µM); 70.2% (second compound 0.0316 µM, first compound 0.949 µM); 63% (second compound 0.0316 µM, first compound 3 µM). For the same compound, the viability, T/C runs as follows: (second compound 0.1 µM, first compound 0.00949 µM) 87.9%; (second compound 0.1 µM, first compound 0.03 µM) 60.2%; (second compound 0.1 µM, first compound 0.0949 µM) 47.7%; (second compound 0.1 µM, first compound 0.3 µM) 62.5%; (second compound 0.1 µM, first compound 0.949 µM) 62.4%; (second compound 0.1 µM, first compound 3 µM) 74.5%. Further, the viability, T/C was 90% (second compound 0.316 µM, first compound 0.00949 µM); 61.4% (second compound 0.316 µM, first compound 0.03 µM); 46.9% (second compound 0.316 µM, first compound 0.0949 µM); 53.2% (second compound 0.316 µM, first compound 0.3 µM); 57.3% (second compound 0.316 µM, first compound 0.949 µM); 58.1% (second compound 0.316 µM, first compound 3 µM). Moreover, the viability, T/C reads like this: (second compound 1 µM, first compound 0.00949 µM) 77.2%; (second compound 1 µM, first compound 0.03 µM) 67.8%; (second compound 1 µM, first compound 0.0949 µM) 52.8%; (second compound 1 µM, first compound 0.3 µM) 57.7%; (second compound 1 µM, first compound 0.949 µM) 66%; (second compound 1 µM, first compound 3 µM) 68.7%. The viability, T/C runs as follows: (second compound 3.16 µM, first compound 0.00949 µM) 91.9%; (second compound 3.16 µM, first compound 0.03 µM) 68.9%; (second compound 3.16 µM, first compound 0.0949 µM) 62.4%; (second compound 3.16 µM, first compound 0.3 µM) 55.5%; (second compound 3.16 µM, first compound 0.949 µM) 59.6%; (second compound 3.16 µM, first compound 3 µM) 73.1%. Also, the viability, T/C reads like this: (second compound 10 µM, first compound 0.00949 µM) 84%; (second compound 10 µM, first compound 0.03 µM) 60.6%; (second compound 10 µM, first compound 0.0949 µM) 60.6%; (second compound 10 µM, first compound 0.3 µM) 61.7%; (second compound 10 µM, first compound 0.949 µM) 73.1%; (second compound 10 µM, first compound 3 µM) 67.9%.

The values are drawn from PubChem BioAssay AID1963835 (Molecular Pharmacology Branch, DTP, NCI, 2024).
